In PubChem BioAssay (NCI):
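How tested: cells in 96-well plates exposed to compound for 48 hours at five concentrations. GI50 marks 50% less growth. At the TGI there is no net growth.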

Assays:
Experiment in all cases: inhibition of tumour cell growth, NCI panel, 48 h; in the data active means GI50 below about 0.43 µM; inactive means the rest
786-0 renal = tested on: 786-0 renal
A498 renal = tested on: A498 renal
A549 NSCLC = tested on: A549 NSCLC
ACHN renal = tested on: ACHN renal
BT-549 breast = tested on: BT-549 breast
CAKI-1 renal = tested on: CAKI-1 renal
CCRF-CEM leukemia = tested on: CCRF-CEM leukemia
COLO 205 colon = tested on: COLO 205 colon
DU-145 prostate = tested on: DU-145 prostate
HCC-2998 colon = tested on: HCC-2998 colon
HCT-116 colon = tested on: HCT-116 colon
HCT-15 colon = tested on: HCT-15 colon
HL-60(TB) leukemia = tested on: HL-60(TB) leukemia
HOP-62 NSCLC = tested on: HOP-62 NSCLC
HOP-92 NSCLC = tested on: HOP-92 NSCLC
HS 578T breast = tested on: HS 578T breast
HT29 colon = tested on: HT29 colon
IGROV1 ovarian = tested on: IGROV1 ovarian
K-562 leukemia = tested on: K-562 leukemia
KM12 colon = tested on: KM12 colon
LOX IMVI melanoma = tested on: LOX IMVI melanoma
M14 melanoma = tested on: M14 melanoma
MALME-3M melanoma = tested on: MALME-3M melanoma
MCF7 breast = tested on: MCF7 breast
MDA-MB-231 breast = tested on: MDA-MB-231 breast
MDA-MB-435 = tested on: MDA-MB-435
MOLT-4 leukemia = tested on: MOLT-4 leukemia
NCI-H226 lung = tested on: NCI-H226 lung
NCI-H23 lung = tested on: NCI-H23 lung
NCI-H460 lung = tested on: NCI-H460 lung
NCI-H522 lung = tested on: NCI-H522 lung
NCI/ADR-RES ovarian = tested on: NCI/ADR-RES ovarian
OVCAR-3 ovarian = tested on: OVCAR-3 ovarian
OVCAR-4 ovarian = tested on: OVCAR-4 ovarian
OVCAR-5 ovarian = tested on: OVCAR-5 ovarian
OVCAR-8 ovarian = tested on: OVCAR-8 ovarian
PC-3 prostate = tested on: PC-3 prostate
RPMI-8226 leukemia = tested on: RPMI-8226 leukemia
RXF 393 renal = tested on: RXF 393 renal
SF-268 CNS = tested on: SF-268 CNS
SF-295 CNS = tested on: SF-295 CNS
SF-539 CNS = tested on: SF-539 CNS
SK-MEL-2 melanoma = tested on: SK-MEL-2 melanoma
SK-MEL-28 melanoma = tested on: SK-MEL-28 melanoma
SK-MEL-5 melanoma = tested on: SK-MEL-5 melanoma
SK-OV-3 ovarian = tested on: SK-OV-3 ovarian
SN12C renal = tested on: SN12C renal
SNB-19 CNS = tested on: SNB-19 CNS
SNB-75 CNS = tested on: SNB-75 CNS
SR leukemia = tested on: SR leukemia
SW-620 colon = tested on: SW-620 colon
TK-10 renal = tested on: TK-10 renal
U251 CNS = tested on: U251 CNS
UACC-257 melanoma = tested on: UACC-257 melanoma
UACC-62 melanoma = tested on: UACC-62 melanoma
UO-31 renal = tested on: UO-31 renal

COc1ccc(NC(=O)COc2ccccc2)c(C(N)=O)c1
inactive: GI50 (786-0 renal) 2.18 µM | GI50 (A498 renal) 0.757 µM | GI50 (A549 NSCLC) 1.09 µM | GI50 (ACHN renal) 2.98 µM | GI50 (BT-549 breast) 0.621 µM | GI50 (CAKI-1 renal) 1.09 µM | GI50 (CCRF-CEM leukemia) 0.961 µM | GI50 (COLO 205 colon) 0.505 µM | GI50 (DU-145 prostate) 2.31 µM | GI50 (HCC-2998 colon) 3.2 µM | GI50 (HCT-116 colon) 0.588 µM | GI50 (HCT-15 colon) 0.523 µM | GI50 (HOP-62 NSCLC) 1.07 µM | GI50 (HOP-92 NSCLC) 2.87 µM | GI50 (HS 578T breast) 0.871 µM | GI50 (HT29 colon) 0.43 µM | GI50 (IGROV1 ovarian) 4.71 µM | GI50 (KM12 colon) 0.52 µM | GI50 (LOX IMVI melanoma) 3.14 µM | GI50 (M14 melanoma) 0.499 µM | GI50 (MALME-3M melanoma) 69 µM | GI50 (MCF7 breast) 0.538 µM | GI50 (MDA-MB-231 breast) 1.91 µM | GI50 (MOLT-4 leukemia) 2.67 µM | GI50 (NCI-H226 lung) 20.9 µM | GI50 (NCI-H23 lung) 2.61 µM | GI50 (NCI-H460 lung) 0.605 µM | GI50 (NCI-H522 lung) 0.812 µM | GI50 (NCI/ADR-RES ovarian) 0.574 µM | GI50 (OVCAR-4 ovarian) > 44.8 µM | GI50 (OVCAR-5 ovarian) 7.14 µM | GI50 (OVCAR-8 ovarian) 3.01 µM | GI50 (PC-3 prostate) 0.712 µM | GI50 (RPMI-8226 leukemia) 1.93 µM | GI50 (RXF 393 renal) 1.9 µM | GI50 (SF-268 CNS) 4.25 µM | GI50 (SF-295 CNS) 0.644 µM | GI50 (SF-539 CNS) 0.506 µM | GI50 (SK-MEL-2 melanoma) 0.729 µM | GI50 (SK-MEL-28 melanoma) 6.13 µM | GI50 (SK-MEL-5 melanoma) 1.11 µM | GI50 (SK-OV-3 ovarian) 3.35 µM | GI50 (SN12C renal) 5.53 µM | GI50 (SNB-19 CNS) 1.9 µM | GI50 (SR leukemia) 0.466 µM | GI50 (SW-620 colon) 0.511 µM | GI50 (TK-10 renal) 18.3 µM | GI50 (U251 CNS) 0.742 µM | GI50 (UACC-257 melanoma) > 100 µM | GI50 (UACC-62 melanoma) 1.18 µM | GI50 (UO-31 renal) 6.99 µM
43.4 µM: TGI (HOP-62 NSCLC)
20.1 µM: TGI (U251 CNS)
> 81.2 µM: TGI (UACC-62 melanoma)
97.1 µM: TGI (HS 578T breast)
> 87.3 µM: TGI (HCC-2998 colon)
> 68.9 µM: TGI (SNB-19 CNS)
> 100 µM: TGI (A549 NSCLC) | TGI (ACHN renal) | TGI (BT-549 breast) | TGI (CAKI-1 renal) | TGI (CCRF-CEM leukemia) | TGI (HCT-116 colon) | TGI (HCT-15 colon) | TGI (HL-60(TB) leukemia) | TGI (HT29 colon) | TGI (IGROV1 ovarian) | TGI (K-562 leukemia) | TGI (LOX IMVI melanoma) | TGI (M14 melanoma) | TGI (MALME-3M melanoma) | TGI (MCF7 breast) | TGI (MOLT-4 leukemia) | TGI (NCI-H226 lung) | TGI (OVCAR-4 ovarian) | TGI (OVCAR-5 ovarian) | TGI (OVCAR-8 ovarian) | TGI (PC-3 prostate) | TGI (SK-MEL-28 melanoma) | TGI (SK-OV-3 ovarian) | TGI (SN12C renal) | TGI (SW-620 colon) | TGI (TK-10 renal) | TGI (UACC-257 melanoma) | TGI (UO-31 renal)
13.5 µM: TGI (RXF 393 renal)
> 63 µM: TGI (MDA-MB-231 breast)
> 83.2 µM: TGI (SK-MEL-2 melanoma)
> 50.2 µM: TGI (SR leukemia)
49.4 µM: TGI (786-0 renal)
> 75.1 µM: TGI (SF-268 CNS)
16.5 µM: TGI (SF-295 CNS)
> 55.2 µM: TGI (RPMI-8226 leukemia)
13.3 µM: TGI (NCI-H522 lung)
> 56.7 µM: TGI (NCI-H460 lung)
active: GI50 (HL-60(TB) leukemia) 0.368 µM | GI50 (K-562 leukemia) 0.348 µM | GI50 (MDA-MB-435) 0.156 µM | GI50 (OVCAR-3 ovarian) 0.403 µM | GI50 (SNB-75 CNS) 0.398 µM
11.9 µM: TGI (NCI/ADR-RES ovarian)
> 76.2 µM: TGI (SK-MEL-5 melanoma)
11.2 µM: TGI (SNB-75 CNS)
6.56 µM: TGI (COLO 205 colon)
0.845 µM: TGI (MDA-MB-435)
8.38 µM: TGI (A498 renal)
> 78 µM: TGI (HOP-92 NSCLC)
> 62.2 µM: TGI (DU-145 prostate)
4.01 µM: TGI (SF-539 CNS)
35.5 µM: TGI (NCI-H23 lung)
2.88 µM: TGI (OVCAR-3 ovarian)
> 50.3 µM: TGI (KM12 colon)
